Data as given in patent publication US3940482A, “Solubilization of the zinc salt of 1-hydroxy-2-pyridinethione” (priority 1973, dated 1976).
Each block holds one compound with its values, some of them ahead of it.

How the values were obtained:
[1] = Solubilization of zinc pyridinethione in anionic shampoo base (visual observations); format: physicochemical
[2] = Solubilization of zinc pyridinethione in amphoteric shampoo base (visual observations)
[3] = Solubilization of zinc pyridinethione in water by DETA, DGA, PEI-1000 (visual observations); format: physicochemical
Procedure: H2 O. This 48.5 g. slurry is stirred for 1 minute. […] Also, to 0.75 g. […] H2 O. The 45.50 g. slurry is stirred for 1 minute.
**A.E. means active ingredients.

[4] = Effect of chelating/sequestering agent on biocidal activity of zinc pyridinethione; settings: aliphatic polyamine, up to two-fold excess
[5] = less than one part EDTA per part pyridinethione salt shows this effect; cited from earlier work

Visual - unadjusted [1]: Cloudy shampoo
pH - unadjusted ([1]; anionic shampoo, 1.5% zinc pyridinethione, 3.0% solubilizer): 9.0
zinc pyridinethione soluble (visual, unadjusted pH) ([1]; anionic shampoo, unadjusted pH): < 10%
pH - unadjusted ([2]; 1.5% zinc pyridinethione, 3.0% solubilizer): 9.6
Solubility of zinc pyridinethione on stirring at room temperature for 3 minutes [3]: Less than 10%
effectiveness as solubilizing agent for heavy metal salts of pyridinethione [3]: ineffective
pH of solution unadjusted ([3]; 1.5% zinc pyridinethione, 3.0% solubilizer in water): 11.2
SMILES: NCCOCCO [DGA, diglycolamine]
Visual observation: hot plate heating until 110°F. [3]: No greater solubility. Zinc pyridinethione quickly settles

SMILES: NCCNCCN [DETA, diethylene triamine]
effect on antimicrobial activity of zinc pyridinethione [4]: does not reduce the antimicrobial activity
Visual observation at pH 9.2 ([1]; anionic shampoo, pH decreased with HCl to 9.2): slightly cloudy
pH down to which shampoo remains clear ([2]; pH adjustment with HCl, smoky color at this pH): ~9.3
pH at which solution starts clouding up ([3]; pH adjusted downward with HCl): ~9.2
precipitation at pH 8.8 ([3]; pH adjusted downward with HCl, pH 8.8): ~50%

SMILES: O=C(O)CN(CCN(CC(=O)O)CC(=O)O)CC(=O)O [ethylenediamine tetraacetic acid]
effect on biocidal activity of zinc pyridinethione [5]: very deleterious effect
